{"source": "patent US11739252B2", "about": "“Microbecidal composition and a method for mitigating internal microbiological influenced corrosion in petroleum transporting pipelines” (Indian Oil Corporation Limited, priority 2020, dated 2023)", "test_system": "MIC causing microbes", "assay": "Synergistic effect of components: antimicrobial screening against MIC causing microbes and their mediated corrosion", "type": "cell-based", "settings": "dosed at 10000 ppm", "experimental": "To test the MIC activity, the microbecidal composition was subjected to antimicrobial screening against MIC causing microbes and their mediated corrosion. 10 gram of muck sample from a pipeline having MIC was used as inoculum. The growth of the microbes was followed by visual observation as well as by counting the CFU/ml on respective media. The growth was compared with control i.e., without microbecidal composition. Further, individual components of the microbecidal composition were evaluated to evaluate the synergistic effect of the composition (Table 1). As observed from the Table-1 below, when the individual components of the microbecidal composition was used, no significant MIC reduction was observed."}
{"compound": "CCO", "note": "[Alcohol]", "values": [{"measurement": "Percentage (%) reduction in MIC", "setting": "base corrosion rate 12 mpy", "result": 10, "unit": "%"}, {"measurement": "After dosing of Microbecidal composition (mpy)", "setting": "base corrosion rate without composition 12 mpy, muck sample inoculum", "result": 10.75, "unit": "mpy"}]}
